In ChEMBL document CHEMBL1135332, “Synthesis and cytotoxic activity of pyridazino[1',6':1,2]pyrido[3,4-b]indol-5-inium derivatives as anti-cancer agents” (Bioorg Med Chem Lett, 2002):

Tests used:
L1210 [1] = assay: Inhibitory concentration required against L1210 leukemia cells; assay type: functional, cell-based; details: Mus musculus
L1210 [2] = assay: Effect on L1210 cell cycle was determined and percent of treated cells in the G1 phase of L1210 leukemia cells was determined; assay type: functional, Mus musculus
L1210 [3] = details: Mus musculus
Description: Effect on L1210 cell cycle was determined and percent of treated cells in the G2M phase of L1210 leukemia cells was determined; NS implies not significant.

L1210 [4] = details: Mus musculus; remark: listed apart in the source
Description: Effect on L1210 cell cycle was determined and percent of treated cells in the G1 phase of L1210 leukemia cells was determined; NS implies not significant.

L1210 [5] = assay: Cytotoxic concentration against L1210 leukemia cells was determined; 30% apoptosis ([…]) was observed; assay type: functional, cell-based; details: Mus musculus
L1210 [6] = assay: Effect of compound on L1210 cell cycle was determined and percent of treated cells in the G2M phase of L1210 leukemia cells was determined; assay type: functional, Mus musculus
L1210 [7] = assay: Effect of compound on L1210 cell cycle was determined and percent of treated cells in the G2M phase of L1210 leukemia cells; assay type: functional, Mus musculus

Row | SMILES | IC50 (L1210 [1]) [µM] | Treated cells (L1210 [3]) | Treated cells (L1210 [4]) | also measured
1 | COc1ccc2c3cc[n+]4nc(/C=C/[Si](C(C)C)(C(C)C)C(C)C)c(/C=C/[Si](C(C)C)(C(C)C)C(C)C)cc4c3n(C)c2c1 | 2.3 |  |  | 
2 | CCc1cc2c3[nH]c4cc(OCc5ccccc5)ccc4c3cc[n+]2nc1CC.[Br-] | 1.9 |  |  | Treated cells (L1210 [2]): 54%
3 | CCc1cc2c3[nH]c4ccc([N+](=O)[O-])cc4c3cc[n+]2nc1CC | 15.3 | Not significant | Not significant | 
4 | CCc1cc2c3[nH]c4c(N)cccc4c3cc[n+]2nc1CC | 1 | Not significant | Not significant | Concentration (L1210 [5]): 5 µM
5 | CC[C@@]1(O)C(=O)OCc2c1cc1n(c2=O)Cc2cc3ccccc3nc2-1 [CAMPTOTHECIN] | 0.03 |  |  | Treated cells (L1210 [6]): 80%
6 | CCc1cc2c3[nH]c4c([N+](=O)[O-])cccc4c3cc[n+]2nc1CC | 1.5 | Not significant | Not significant | Concentration (L1210 [5]): 5 µM
7 | C#CCNC(=O)Cn1c2ccccc2c2cc[n+]3nc(-c4cccc5ccccc45)c(-c4cccc5ccccc45)cc3c21 | 10.4 | Not significant | Not significant | 
8 | COc1cccc2c1C(=O)c1c(O)c3c(c(O)c1C2=O)C[C@@](O)(C(=O)CO)C[C@@H]3O[C@H]1C[C@H](N)[C@H](O)[C@H](C)O1 [DOXORUBICIN] |  |  |  | Treated cells (L1210 [6]): 81%
9 | CCc1cc2c3[nH]c4ccc(Br)cc4c3cc[n+]2nc1CC | 2.3 | Not significant | Not significant | 
10 | CCc1cc2c3[nH]c4cc(O)ccc4c3cc[n+]2nc1CC | 10 | Not significant | Not significant | 

Continued, in another order:

Row | IC50 (L1210 [1]) [µM] | SMILES | Treated cells (L1210 [3]) | Treated cells (L1210 [4]) | also measured
11 | 0.048 | CCCCCn1c2cc(OC)ccc2c2cc[n+]3nc(C)c(C)cc3c21 |  |  | Treated cells (L1210 [2]): 57%
12 | 5.2 | Cc1cc2c3[nH]c4cc(OCc5ccccc5)ccc4c3cc[n+]2nc1C | Not significant | Not significant | 
13 | 5 | CCOC(=O)Cn1c2cc(OC)ccc2c2cc[n+]3nc(C)c(C)cc3c21 | Not significant | Not significant | 
14 | 72.9 | C#CCNC(=O)Cn1c2cc(OC)ccc2c2cc[n+]3nc(CC)c(CC)cc3c21 |  |  | 
15 | 2 | CCc1cc2c3[nH]c4cc(OC)ccc4c3cc[n+]2nc1CC |  |  | Treated cells (L1210 [7]): 35%
16 | 1.1 | CCc1cc2c3c(cc[n+]2nc1CC)c1ccc(OC)cc1n3C |  |  | Treated cells (L1210 [2]): 65%
17 | 0.065 | CCCCCn1c2cc(OC)ccc2c2cc[n+]3nc(CC)c(CC)cc3c21 |  |  | Treated cells (L1210 [2]): 60%
18 | 1.3 | COc1ccc2c(c1)[nH]c1c2cc[n+]2nc(C)c(C)cc12 |  |  | Treated cells (L1210 [7]): 38%
19 | 1.3 | C#CCCCn1c2cc(OC)ccc2c2cc[n+]3nc(-c4ccco4)c(-c4ccco4)cc3c21 |  |  | Treated cells (L1210 [2]): 54%
20 | 1.9 | CCc1cc2c3c(cc[n+]2nc1CC)c1ccccc1n3CCCBr | Not significant | Not significant | 
21 | 2 | CCOC(=O)CCCn1c2cc(OC)ccc2c2cc[n+]3nc(CC)c(CC)cc3c21 | Not significant | Not significant | 
22 | 1.1 | CCOC(=O)Cn1c2cc(OC)ccc2c2cc[n+]3nc(CC)c(CC)cc3c21 |  |  | Treated cells (L1210 [6]): 46%
